Laboratory results reported in ChEMBL document CHEMBL5233269, “Anticancer potential of spirocompounds in medicinal chemistry: A pentennial expedition” (Eur J Med Chem, 2021).
Values belong to the compound of their own block, whether it stands above or below them.

What was measured:
CCRF-CEM = experiment: Anticancer activity against human CEM cells; format: functional, cell-based
MCF7 = experiment: Anticancer activity against human MCF7 cells assessed as reduction in cell proliferation; format: functional, cell-based
HeLa = experiment: Anticancer activity against human HeLa cells assessed as reduction in cell proliferation; format: functional, cell-based
[1] = Anticancer activity against human BJ cells assessed as reduction in cell proliferation; format: toxicity, cell-based
MDA-MB-231 = experiment: Antiproliferative activity against human MDA-MB-231 cells assessed as reduction in tumor cell proliferation; format: functional, cell-based
HepG2 = experiment: Anticancer activity against human HepG2 cells at 50 ug/ml measured after 48 hrs relative to control; format: functional; details: dose 50 µg/ml
Androgen receptor [2] = biological target: T1, Androgen receptor (Homo sapiens, UniProt P10275); experiment: Antagonist activity at androgen receptor (unknown origin)
T1 sequence (P10275 whole entry): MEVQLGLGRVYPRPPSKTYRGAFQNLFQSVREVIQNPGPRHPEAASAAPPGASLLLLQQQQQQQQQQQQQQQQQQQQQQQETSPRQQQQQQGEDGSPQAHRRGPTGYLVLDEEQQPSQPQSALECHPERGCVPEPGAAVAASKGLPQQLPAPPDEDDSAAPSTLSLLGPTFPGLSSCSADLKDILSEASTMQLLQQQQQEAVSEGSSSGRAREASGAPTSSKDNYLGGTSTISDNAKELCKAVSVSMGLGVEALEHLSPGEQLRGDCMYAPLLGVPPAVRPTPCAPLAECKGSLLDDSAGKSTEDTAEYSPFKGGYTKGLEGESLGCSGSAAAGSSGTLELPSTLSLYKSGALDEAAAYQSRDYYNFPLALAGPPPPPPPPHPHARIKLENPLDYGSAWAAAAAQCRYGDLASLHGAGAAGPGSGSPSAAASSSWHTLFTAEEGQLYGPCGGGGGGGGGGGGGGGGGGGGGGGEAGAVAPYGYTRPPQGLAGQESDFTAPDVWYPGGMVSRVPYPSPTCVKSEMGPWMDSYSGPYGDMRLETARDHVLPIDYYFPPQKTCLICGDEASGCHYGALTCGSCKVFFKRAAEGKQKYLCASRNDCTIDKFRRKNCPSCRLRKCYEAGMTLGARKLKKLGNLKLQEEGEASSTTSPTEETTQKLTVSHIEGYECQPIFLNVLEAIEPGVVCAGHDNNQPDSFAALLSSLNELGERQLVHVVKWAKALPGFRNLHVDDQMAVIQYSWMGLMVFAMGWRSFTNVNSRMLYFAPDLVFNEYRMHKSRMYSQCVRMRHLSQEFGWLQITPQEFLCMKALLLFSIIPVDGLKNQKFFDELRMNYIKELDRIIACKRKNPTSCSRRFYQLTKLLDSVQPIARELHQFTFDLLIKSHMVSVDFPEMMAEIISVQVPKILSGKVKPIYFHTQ

Androgen receptor [3] = biological target: T1, Androgen receptor; experiment: Antagonist activity at androgen receptor (unknown origin) assessed as inhibition constant
Bel-7402 = experiment: Antiproliferative activity against human Bel-7402 cells; format: functional, cell-based
A549 [4] = experiment: Antiproliferative activity against human A549 cells assessed as cell growth inhibition; format: functional, cell-based
HCT-116 = experiment: Antiproliferative activity against human HCT-116 cells assessed as cell growth inhibition; format: functional, cell-based
MGC-803 = experiment: Antiproliferative activity against human MGC-803 cells assessed as cell growth inhibition; format: functional, cell-based
[5] = Antiproliferative activity against human Panel (10 carcinoma cell lines) cells; format: functional, cell-based
Jurkat = experiment: Cytotoxicity against human Jurkat cells; format: functional, cell-based
CT26 = experiment: Anticancer activity against mouse CT26 cells at 50 ug/ml measured after 24 hrs relative to control; format: functional; details: dose 50 µg/ml
PC-3 = experiment: Anticancer activity against human PC-3 cells assessed as reduction in cell proliferation; format: functional, cell-based
HOP-92 = experiment: Anticancer activity against human HOP-92 cells assessed as reduction in cell proliferation; format: functional, cell-based
A549 [6] = experiment: Anticancer activity against human A549 cells assessed as reduction in cell proliferation; format: functional, cell-based
UO-31 = experiment: Anticancer activity against human UO-31 cells assessed as reduction in cell proliferation; format: functional, cell-based
HaCaT = experiment: Growth inhibition of human HaCaT cells; format: functional
NCI-H460 = experiment: Growth inhibition of human NCI-H460 cells; format: functional, cell-based

Structure (SMILES): CCCCN1C(=O)C2(c3cc(F)ccc31)[C@@H](C(=O)OCC)[C@H](C(=O)OCC)NC2(CC(=O)OC)C(=O)OC (stereo partly specified)
Activity (HepG2): 55.92%

Structure (SMILES): COC(=O)c1ccc(C2C(=S)N(c3ccc(C#N)c(C(F)(F)F)c3)C(=O)[C@]23CCOC3)cc1F (stereo partly specified)
IC50 (Androgen receptor [2]): 0.033 µM
Ki (Androgen receptor [3]): 0.0056 µM

Structure (SMILES): O=C(/C=C1\CC(=O)N(c2ccc(Cl)cc2)C1=O)Nc1ccc(Cl)cc1
IC50 (Jurkat): 33.5 µM

Structure (SMILES): CCOC(=O)[C@@H]1N[C@@](CC(=O)OC)(C(=O)OC)C2(C(=O)N(C(=O)OC(C)(C)C)c3ccccc32)[C@H]1c1ccc([N+](=O)[O-])cc1 (stereo partly specified)
Activity (CT26): 58.89%

Structure (SMILES): Cc1ccc(/C=C2\CN(C)C[C@]3(C2=O)[C@H](c2ccc(C)cc2)CN(C)[C@]32C(=O)N(CN3CCOCC3)c3ccccc32)cc1
IC50 (PC-3): 0.831 µM
IC50 (HOP-92): 1.4 µM
IC50 (A549 [6]): 3.59 µM
IC50 (UO-31): 1.77 µM

Structure (SMILES): N#CC1=CC2(c3ccccc3NC3C=CC=CC32)N(/N=C/c2ccccc2)C1=O (stereo unspecified)
GI50 (HaCaT): 2 µM

Structure (SMILES): COc1ccc(/C=N/N2C(=O)C(C#N)=CC23c2ccccc2NC2C=CC=CC23)cc1 (stereo unspecified)
IC50 (NCI-H460): 0.12 µM

Now from value to compound, other results behind:

IC50 (CCRF-CEM): 23.2 µM
IC50 (MCF7): 19.9 µM
IC50 (HeLa): 35.7 µM
Structure (SMILES): CC1CO[C@@]2(O[C@H]3CC4C5CC[C@@H]6C[C@@H](O)CC[C@]6(C)C5CC(=O)[C@]4(C)[C@H]3[C@@H]2C)/C(=C/c2ccccc2)C1 (stereo partly specified)
IC50 [1]: 45.3 µM

IC50 (MDA-MB-231): 44.6 µM
Structure (SMILES): O=C1N(C2CCCCC2)C(=O)C2(CC(c3ccccc3O)=NCCN2)N1C1CCCCC1 (stereo unspecified)

IC50 (Bel-7402): 4.88 µM
IC50 (A549 [4]): 4.88 µM
IC50 (HCT-116): 4.88 µM
IC50 (MGC-803): 4.88 µM
Structure (SMILES): O=C(C[C@@H](CC1CCCC1)C(=O)N1CC2(CC2)C[C@H]1C(=O)Nc1ccc(F)cn1)NO
IC50 [5]: 2 µM
